# In PMC10862539, “Chelation of Mitochondrial Iron as an Antiparasitic Strategy” (ACS Infectious Diseases, 2024):
# “And” between values parts separate entries of the source, which are not always exact repeats. Equal values may be shown once. Read-outs that look alike come from different tables or passages of the source.
# Columns and labels:
# [1] = system: T. brucei 427 (BSF); experiment: Drug sensitivity assay, T. brucei 427 bloodstream form (resazurine); format: cell-based, Trypanosoma brucei; settings: for selectivity (for −Fe): EC50 human fibroblasts / EC50 T. brucei 427 (BSF); for EC50: Trypanosoma brucei, 72 h
# Description: (§1) All organisms were cultivated according to the conditions summarized in Table S2, which also includes strain specifications. Dose–response curves were obtained by their cultivation on 96 well plates in a 2-fold series dilution of the appropriate drug, in a total volume of 200 μL (with the exception of P. falciparum, where the total volume was 100 μL). Iron supplementation was achieved by mixing the compound with Fe-NTA in an equimolar ratio prior to setting up the experiment. Results were plotted and processed using Prism 8.0 (GraphPad Software). A two-tailed unpaired t-test was performed to assess the significance of the difference between mitoDFO with and without added iron. Selectivity was calculated as the ratio of the average EC50 value for human fibroblasts to the average EC50 value for the appropriate pathogen. All data were obtained from a minimum of three independent biological replicates.
# [2] = system: L. major (promastigote); experiment: Drug sensitivity assay, L. major promastigote (flow cytometry); format: cell-based; settings: for EC50: Leishmania major, 120 h
# Description: as §1
# [3] = system: B. divergens; experiment: Drug sensitivity assay, B. divergens in bovine erythrocytes (flow cytometry); format: cell-based, Babesia divergens; settings: for EC50: Babesia divergens, Erythrocyte, 48 h; for selectivity (for −Fe): EC50 human fibroblasts / EC50 B. divergens
# Description: as §1
# [4] = system: C. albicans; experiment: Drug sensitivity assay, C. albicans (OD600); format: cell-based, Candida albicans; settings: for EC50: Candida albicans, 48 h
# Description: as §1
# [5] = system: C. neoformans; experiment: Drug sensitivity assay, C. neoformans (OD600); format: cell-based, Cryptococcus neoformans; settings: for EC50: Cryptococcus neoformans, 72 h
# Description: as §1
# [6] = system: N. fowleri; experiment: Drug sensitivity assay, N. fowleri (flow cytometry); format: cell-based; settings: for selectivity (for −Fe): EC50 human fibroblasts / EC50 N. fowleri; for EC50: Naegleria fowleri, 72 h
# Description: as §1
# [7] = system: A. castellanii; experiment: Drug sensitivity assay, A. castellanii (flow cytometry); format: cell-based, Acanthamoeba castellanii; settings: for EC50: Acanthamoeba castellanii, 96 h; for selectivity (for −Fe): EC50 human fibroblasts / EC50 A. castellanii
# Description: as §1
# [8] = system: T. brucei BSF cells; experiment: Sytox Green assay, percentage of live cells; format: cell-based, Trypanosoma brucei
# Description: Sytox Green Assay to determine the percentage of live treated and untreated cells at selected time points. T. brucei BSF cells were seeded at a concentration of 2 × 10^5 cells/mL in 5 mL HMI-9 medium in aerobic cultivation flasks. Cells were treated with compounds at final concentration of 0,05 µM, 0,1 µM, 0,25 µM mitoDFO and 10 µM, 100 µM DFO. In addition, there was a group of untreated cells. At defined time points (24, 36, 48, and 72 h), 20 µL samples were collected from each flask. These samples were then diluted tenfold in fresh HMI-9 medium, reaching a final volume of 200 µL, with the addition of 2 µL SYTOX Green Dead Cell Stain (Invitrogen). Following a 30-minute incubation under standard growth conditions, the cells were analyzed using a Guava EasyCyte 8HT flow cyometer (Luminex flow) with detection at 504/523 nm. This entire procedure was conducted in biological triplicates.
# Compound Concentration % of live cells
# [9] = system: Babesia gibsoni; parameters: method as in PMID 18771856; settings: B. gibsoni; ref [40]; cited from earlier work
# [10] = target: isolated mitochondria of T. brucei 427; experiment: Mitochondrial membrane intactness in isolated mitochondria (threonine dehydrogenase marker); parameters: species or system Trypanosoma brucei; settings: threonine dehydrogenase activity as marker, read-out: 50% membrane intactness (inner membrane permeability increased by 50%)
# Description: Mitochondrial intactness was assessed by isolating the mitochondrial fraction of untreated cells, as described above, without the addition of Triton X-100 and adding different concentrations of mitoDFO. Threonine dehydrogenase activity was measured as a marker of the disintegration of mitochondrial membranes. Triton X-100 was used to disrupt membrane integrity and served as a positive control to obtain maximum activity. All experiments were performed in at least three biologically independent replicates and plotted and analyzed using Prism 8.0 (GraphPad Software).
# [11] = system: Candida albicans; experiment: C. albicans hyphae formation (phase contrast microscopy); format: cell-based; settings: 3.6 and 7.2 μM mitoDFO for 24 h
# Description: The yeast form of C. albicans was seeded in the 2 mL RPMI medium on a 24 well plate with a glass bottom and treated with MitoDFO in concentrations of 0, 3.6, and 7.2 μM. The culture was incubated at 35 °C for 24 h, and microscopic images were taken using phase contrast on an inverted microscope Eclipse TI-S (Nikon).
# [12] = system: Cryptococcus neoformans; experiment: C. neoformans capsule size (India ink microscopy); format: cell-based; settings: 20 μM mitoDFO for 24 h; 31 cells
# Description: C. neoformans capsule thickness was measured using a previously published protocol.[33] Briefly, the yeast was seeded in 1 mL of RPMI in a 24 well plate with and without a final concentration of 20 μM mitoDFO for 24 h at 35 °C. The culture was harvested (1300 g, 5 min, RT) and resuspended in 50 μL of RPMI. An equal amount of India Ink (Thermo-Fisher) was added, and a total volume of 15 μL of resuspended cells was placed on a microscope slide, covered with cover glass, and imaged on an Eclipse TI-S (Nikon) inverted microscope using 100× magnification. A total of 31 cells were randomly selected, excluding morphologically anomalous and overlapping cells. Using NIS Elements BR (Nikon), the inner and outer diameters of each cell were measured, and cell size and capsule thickness were calculated. Graphs were plotted, and an unpaired t-test was performed using Prism 8.0 (GraphPad Software).
# [13] = system: Human fibroblast BJ1; parameters: method as in C. Sandoval-Acuña et al.[25]; settings: ref C. Sandoval-Acuña et al.[25], read-out: control EC50; cited from earlier work
smiles,measurement,setting,value
"CC(=O)N(O)CCCCCNC(=O)CCC(=O)N(O)CCCCCNC(=O)CCC(=O)N(O)CCCCCN [DFO, Deferoxamine, reference compound]",selectivity (for −Fe),[1],>5
same,EC50,"[1]; iron-free compound, T. brucei 427 (BSF), read-out: EC50 –Fe",22 ± 1.2 µM
same,EC50,"[1]; pre-treated with equimolar iron, T. brucei 427 (BSF), read-out: EC50 +Fe",> 50 µM
same,EC50,"[2]; iron-free compound, L. major (promastigote), read-out: EC50 –Fe",> 25 µM
same,EC50,"[2]; pre-treated with equimolar iron, L. major (promastigote), read-out: EC50 +Fe",> 25 µM
same,EC50,"[3]; iron-free compound, B. divergens, read-out: EC50 –Fe",10.8 ± 1.3 µM
same,EC50,"[3]; pre-treated with equimolar iron, B. divergens, read-out: EC50 +Fe",> 50 µM
same,selectivity (for −Fe),[3],>9
same,EC50,"[4]; iron-free compound, C. albicans, read-out: EC50 –Fe",> 100 µM
same,EC50,"[4]; pre-treated with equimolar iron, C. albicans, read-out: EC50 +Fe",> 100 µM
same,EC50,"[5]; iron-free compound, C. neoformans, read-out: EC50 –Fe",> 100 µM
same,EC50,"[5]; pre-treated with equimolar iron, C. neoformans, read-out: EC50 +Fe",> 100 µM
same,selectivity (for −Fe),[6],>5
same,EC50,"[6]; iron-free compound, N. fowleri, read-out: EC50 –Fe",19.5 ± 5.9 µM
same,EC50,"[6]; pre-treated with equimolar iron, N. fowleri, read-out: EC50 +Fe",> 100 µM
same,EC50,"[7]; iron-free compound, A. castellanii, read-out: EC50 –Fe",8.9 ± 0.6 µM
same,EC50,"[7]; pre-treated with equimolar iron, A. castellanii, read-out: EC50 +Fe",> 50 µM
same,selectivity (for −Fe),[7],>11
same,% of live cells,"[8]; 10 µM DFO, 24h","99,1%"
same,% of live cells,"[8]; 10 µM DFO, 36h","97,5%"
same,% of live cells,"[8]; 10 µM DFO, 48h","74,3%"
same,% of live cells,"[8]; 10 µM DFO, 72h","58,6%"
same,% of live cells,"[8]; 100 µM DFO, 24h","95,5%"
same,% of live cells,"[8]; 100 µM DFO, 36h","78,2%"
same,% of live cells,"[8]; 100 µM DFO, 48h","62,1%"
same,% of live cells,"[8]; 100 µM DFO, 72h","54,8%"
same,EC50,[9],6.45 ± 3.43 µM
CC(=O)N(O)CCCCCNC(=O)CCC(=O)N(O)CCCCCNC(=O)CCC(=O)N(O)CCCCCN(CCCCCCCCCC[P+](c1ccccc1)(c1ccccc1)c1ccccc1)CCCCCCCCCC[P+](c1ccccc1)(c1ccccc1)c1ccccc1 [mitoDFO],selectivity (for −Fe),[1],151
same,DFO/mitoDFO ratio (−Fe),[1]; T. brucei 427 (BSF),372.9
same,mitoDFO EC50 ratio + Fe/–Fe,[1]; T. brucei 427 (BSF),2.1
same,EC50,[1]; read-out: EC50 –Fe,0.059 ± 0.022 µM
same,selectivity (for −Fe),[2]; EC50 human fibroblasts / EC50 L. major (promastigote),5
same,DFO/mitoDFO ratio (−Fe),[2]; L. major (promastigote),>13.2
same,mitoDFO EC50 ratio + Fe/–Fe,[2]; L. major (promastigote),4.8
same,EC50,[2]; read-out: EC50 –Fe,1.9 ± 0.6 µM
same,DFO/mitoDFO ratio (−Fe),[3]; B. divergens,4.7
same,mitoDFO EC50 ratio + Fe/–Fe,[3]; B. divergens,2.5
same,EC50,[3]; read-out: EC50 –Fe,2.3 ± 0.8 µM
same,selectivity (for −Fe),[3],4
same,DFO/mitoDFO ratio (−Fe),[4]; C. albicans,>27.8
same,mitoDFO EC50 ratio + Fe/–Fe,[4]; C. albicans,2.6
same,EC50,[4]; read-out: EC50 –Fe,3.6 ± 1.7 µM
same,selectivity (for −Fe),[4]; EC50 human fibroblasts / EC50 C. albicans,2
same,DFO/mitoDFO ratio (−Fe),[5]; C. neoformans,>50
same,mitoDFO EC50 ratio + Fe/–Fe,[5]; C. neoformans,2.1
same,EC50,[5]; read-out: EC50 –Fe,2 ± 0.5 µM
same,selectivity (for −Fe),[5]; EC50 human fibroblasts / EC50 C. neoformans,4
same,selectivity (for −Fe),[6],1
same,DFO/mitoDFO ratio (−Fe),[6]; N. fowleri,2.9
same,mitoDFO EC50 ratio + Fe/–Fe,[6]; N. fowleri,3.0
same,EC50,[6]; read-out: EC50 –Fe,6.7 ± 0.7 µM
same,DFO/mitoDFO ratio (−Fe),[7]; A. castellanii,11.1
same,mitoDFO EC50 ratio + Fe/–Fe,[7]; A. castellanii,1.3
same,selectivity (for −Fe),[7],11
same,% of live cells,"[8]; 0,1 µM mitoDFO, 24h","99,1%"
same,% of live cells,"[8]; 0,1 µM mitoDFO, 36h","97,9%"
same,% of live cells,"[8]; 0,1 µM mitoDFO, 48h","66,2%"
same,% of live cells,"[8]; 0,1 µM mitoDFO, 72h","53,8%"
same,% of live cells,"[8]; 0,05 µM mitoDFO, 24h","98,6%"
same,% of live cells,"[8]; 0,05 µM mitoDFO, 36h","96,1%"
same,% of live cells,"[8]; 0,05 µM mitoDFO, 48h","62,1%"
same,% of live cells,"[8]; 0,05 µM mitoDFO, 72h","52,8%"
same,% of live cells,"[8]; 0,25 µM mitoDFO, 24h","94,4%"
same,% of live cells,"[8]; 0,25 µM mitoDFO, 36h","82,5%"
same,% of live cells,"[8]; 0,25 µM mitoDFO, 48h","70,2%"
same,% of live cells,"[8]; 0,25 µM mitoDFO, 72h","64,3%"
same,cells alive,[8]; 24 h incubation with up to 0.25 μM,more than 90%
same,living cells,"[8]; twice the EC50 concentration, 36 h",more than 95%
same,EC50,[10],63.2 µM and 63 µM
same,hyphal growth of Candida albicans culture,[11],absence of hyphal growth
same,capsule thickness,[12],increases significantly
same,overall cell size,[12],remains the same
same,EC50,[13],7.9 ± 3.9 µM
